Experimental data as given in PubChem BioAssay AID248 (DTP/NCI, 2004).
Several values for one entry are separate records, joined by “and”; a condition that tells them apart may be missing. Equal entries are not always repeated. Inconclusive results and toxic doses are left out.

System: L1210 leukemia ip in BDF1 mice, survival T/C
Assay: NCI In Vivo Anticancer Drug Screen. Data for tumor model L1210 Leukemia (intraperitoneal) in B6D2F1 (BDF1) mice
Details: endpoint: mean survival time, higher = longer survival
Procedure, shortened: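 Antitumor effect is assessed in tumor-bearing animals. Survival in the compound arm is compared with a vehicle-dosed control arm and expressed as their quotient.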

Q: Which results are given for N[C@@H](Cc1ccc(N(CCCl)CCCl)cc1)C(=O)O?
A: T/C (dose: 0.1 mg/kg/injection, schedule: Q01DX015 (ip), vehicle: carboxymethylcellulose (CMC)): 101 % of control and 102 % of control; T/C (dose: 0.13 mg/kg/injection, schedule: Q01DX009 (ip), vehicle: Klucel (hydroxypropylcellulose) (HPC)): 110 % of control; T/C (dose: 0.2 mg/kg/injection, schedule: Q01DX015 (ip), vehicle: carboxymethylcellulose (CMC)): 104 % of control and 111 % of control; T/C (dose: 0.25 mg/kg/injection, schedule: Q01DX009 (ip), vehicle: Klucel (hydroxypropylcellulose) (HPC)): 105 % of control and 115 % of control; T/C (dose: 0.39 mg/kg/injection, schedule: Q01DX001 (ip), vehicle: carboxymethylcellulose (CMC)): 102 % of control; T/C (dose: 0.4 mg/kg/injection, schedule: Q01DX015 (ip), vehicle: carboxymethylcellulose (CMC)): 109 % of control and 117 % of control; T/C (dose: 0.45 mg/kg/injection, schedule: Q04DX002 (ip), vehicle: Klucel (hydroxypropylcellulose) (HPC)): 96 % of control; T/C (dose: 0.5 mg/kg/injection, schedule: Q01DX005 (ip), vehicle: saline): 111 % of control; T/C (dose: 0.5 mg/kg/injection, schedule: Q01DX009 (ip), vehicle: Klucel (hydroxypropylcellulose) (HPC)): 115 % of control and 116 % of control; T/C (dose: 0.5 mg/kg/injection, schedule: Q01DX009 (ip), vehicle: saline): 120 % of control; T/C (dose: 0.5 mg/kg/injection, schedule: Q03DX Z (ip), vehicle: carboxymethylcellulose (CMC)): 113 % of control; T/C (dose: 0.5 mg/kg/injection, schedule: Q03HX008 (ip), vehicle: saline): 114 % of control; T/C (dose: 0.5 mg/kg/injection, schedule: Q03HX016 (ip), vehicle: saline): 124 % of control; T/C (dose: 0.78 mg/kg/injection, schedule: Q01DX001 (ip), vehicle: carboxymethylcellulose (CMC)): 108 % of control; T/C (dose: 0.8 mg/kg/injection, schedule: Q01DX015 (ip), vehicle: carboxymethylcellulose (CMC)): 121 % of control; T/C (dose: 0.9 mg/kg/injection, schedule: Q04DX002 (ip), vehicle: Klucel (hydroxypropylcellulose) (HPC)): 104 % of control and 115 % of control; T/C (dose: 1.0 mg/kg/injection, schedule: Q01DX005 (ip), vehicle: saline): 123 % of control; T/C (dose: 1.0 mg/kg/injection, schedule: Q01DX006 (iv), vehicle: carboxymethylcellulose (CMC)): 107 % of control; T/C (dose: 1.0 mg/kg/injection, schedule: Q01DX009 (oral), vehicle: saline): 111 % of control; T/C (dose: 1.0 mg/kg/injection, schedule: Q01DX Z (im), vehicle: carboxymethylcellulose (CMC)): 96 % of control; T/C (dose: 1.0 mg/kg/injection, schedule: Q01DX Z (ip), vehicle: carboxymethylcellulose (CMC)): 94 % of control; T/C (dose: 1.0 mg/kg/injection, schedule: Q01DX Z (sc), vehicle: carboxymethylcellulose (CMC)): 94 % of control; T/C (dose: 1.0 mg/kg/injection, schedule: Q03HX008 (ip), vehicle: saline): 119 % of control; T/C (dose: 1.0 mg/kg/injection, schedule: Q#A X Z (ip), vehicle: carboxymethylcellulose (CMC)): 94 % of control; T/C (dose: 1.13 mg/kg/injection, schedule: Q01DX001 (ip), vehicle: carboxymethylcellulose (CMC)): 111 % of control and 121 % of control; T/C (dose: 1.56 mg/kg/injection, schedule: Q01DX001 (ip), vehicle: saline): 104 % of control and 107 % of control; T/C (dose: 1.6 mg/kg/injection, schedule: Q01DX015 (ip), vehicle: carboxymethylcellulose (CMC)): 154 % of control; T/C (dose: 1.8 mg/kg/injection, schedule: Q04DX002 (ip), vehicle: Klucel (hydroxypropylcellulose) (HPC)): 117 % of control and 118 % of control; T/C (dose: 2.0 mg/kg/injection, schedule: Q01DX006 (iv), vehicle: carboxymethylcellulose (CMC)): 110 % of control; T/C (dose: 2.0 mg/kg/injection, schedule: Q01DX Z (im), vehicle: carboxymethylcellulose (CMC)): 98 % of control; T/C (dose: 2.0 mg/kg/injection, schedule: Q01DX Z (ip), vehicle: carboxymethylcellulose (CMC)): 93 % of control; T/C (dose: 2.0 mg/kg/injection, schedule: Q01DX Z (oral), vehicle: carboxymethylcellulose (CMC)): 115 % of control; T/C (dose: 2.0 mg/kg/injection, schedule: Q01DX Z (sc), vehicle: carboxymethylcellulose (CMC)): 104 % of control; T/C (dose: 2.0 mg/kg/injection, schedule: Q03DX Z (ip), vehicle: carboxymethylcellulose (CMC)): 153 % of control; T/C (dose: 2.16 mg/kg/injection, schedule: Q04DX003 (ip), vehicle: saline): 151 % of control; T/C (dose: 2.37 mg/kg/injection, schedule: Q01DX009 (ip), vehicle: other): 150 % of control; T/C (dose: 3.0 mg/kg/injection, schedule: Q03DX Z (ip), vehicle: carboxymethylcellulose (CMC)): 115 % of control; T/C (dose: 3.12 mg/kg/injection, schedule: Q01DX001 (ip), vehicle: saline): 109 % of control and 112 % of control; T/C (dose: 3.6 mg/kg/injection, schedule: Q03HX024 (ip), vehicle: other): 104 % of control; T/C (dose: 4.0 mg/kg/injection, schedule: Q01DX001 (ip), vehicle: saline): 124 % of control; T/C (dose: 4.0 mg/kg/injection, schedule: Q01DX001 (sc), vehicle: saline): 121 % of control; T/C (dose: 4.0 mg/kg/injection, schedule: Q01DX006 (iv), vehicle: carboxymethylcellulose (CMC)): 102 % of control; T/C (dose: 4.0 mg/kg/injection, schedule: Q01DX009 (oral), vehicle: saline): 151 % of control; T/C (dose: 4.0 mg/kg/injection, schedule: Q01DX Z (im), vehicle: carboxymethylcellulose (CMC)): 104 % of control; T/C (dose: 4.0 mg/kg/injection, schedule: Q01DX Z (ip), vehicle: carboxymethylcellulose (CMC)): 98 % of control; T/C (dose: 4.0 mg/kg/injection, schedule: Q01DX Z (oral), vehicle: carboxymethylcellulose (CMC)): 104 % of control; T/C (dose: 4.0 mg/kg/injection, schedule: Q01DX Z (sc), vehicle: carboxymethylcellulose (CMC)): 102 % of control; T/C (dose: 4.0 mg/kg/injection, schedule: Q03HX024 (ip), vehicle: saline): 122 % of control; T/C (dose: 4.0 mg/kg/injection, schedule: Q#A X Z (ip), vehicle: carboxymethylcellulose (CMC)): 110 % of control; T/C (dose: 6.0 mg/kg/injection, schedule: Q03DX Z (ip), vehicle: carboxymethylcellulose (CMC)): 106 % of control; T/C (dose: 6.25 mg/kg/injection, schedule: Q01DX001 (ip), vehicle: saline): 120 % of control; T/C (dose: 7.0 mg/kg/injection, schedule: Q01DX001 (ip), vehicle: carboxymethylcellulose (CMC)): 110 % of control and 115 % of control; T/C (dose: 7.0 mg/kg/injection, schedule: Q07DX Z (ip), vehicle: carboxymethylcellulose (CMC)): 107 % of control; T/C (dose: 7.5 mg/kg/injection, schedule: Q01DX009 (ip), vehicle: saline): 100 % of control and 107 % of control; T/C (dose: 8.0 mg/kg/injection, schedule: Q01DX001 (oral), vehicle: saline): 123 % of control; T/C (dose: 8.0 mg/kg/injection, schedule: Q01DX001 (sc), vehicle: saline): 117 % of control; T/C (dose: 8.0 mg/kg/injection, schedule: Q01DX005 (ip), vehicle: saline): 154 % of control; T/C (dose: 8.0 mg/kg/injection, schedule: Q01DX006 (iv), vehicle: carboxymethylcellulose (CMC)): 104 % of control; T/C (dose: 8.0 mg/kg/injection, schedule: Q01DX009 (ip), vehicle: Klucel (hydroxypropylcellulose) (HPC)): 121 % of control; T/C (dose: 8.0 mg/kg/injection, schedule: Q01DX009 (ip), vehicle: saline): 114 % of control; T/C (dose: 8.0 mg/kg/injection, schedule: Q01DX009 (oral), vehicle: saline): 112 % of control; T/C (dose: 8.0 mg/kg/injection, schedule: Q01DX009 (sc), vehicle: saline): 95 % of control; T/C (dose: 8.0 mg/kg/injection, schedule: Q01DX Z (im), vehicle: carboxymethylcellulose (CMC)): 98 % of control; T/C (dose: 8.0 mg/kg/injection, schedule: Q01DX Z (oral), vehicle: carboxymethylcellulose (CMC)): 104 % of control; T/C (dose: 8.0 mg/kg/injection, schedule: Q01DX Z (sc), vehicle: carboxymethylcellulose (CMC)): 96 % of control; T/C (dose: 12.0 mg/kg/injection, schedule: Q03DX Z (ip), vehicle: carboxymethylcellulose (CMC)): 105 % of control; T/C (dose: 12.5 mg/kg/injection, schedule: Q01DX Z (ip), vehicle: carboxymethylcellulose (CMC)): 102 % of control; T/C (dose: 14.0 mg/kg/injection, schedule: Q01DX001 (ip), vehicle: carboxymethylcellulose (CMC)): 115 % of control and 117 % of control; T/C (dose: 14.0 mg/kg/injection, schedule: Q07DX Z (ip), vehicle: carboxymethylcellulose (CMC)): 98 % of control; T/C (dose: 16.0 mg/kg/injection, schedule: Q01DX Z (ip), vehicle: carboxymethylcellulose (CMC)): 106 % of control; T/C (dose: 16.0 mg/kg/injection, schedule: Q01DX Z (oral), vehicle: carboxymethylcellulose (CMC)): 102 % of control; T/C (dose: 16.7 mg/kg/injection, schedule: Q01DX001 (ip), vehicle: saline): 123 % of control; T/C (dose: 24.0 mg/kg/injection, schedule: Q03DX Z (ip), vehicle: carboxymethylcellulose (CMC)): 105 % of control; T/C (dose: 25.0 mg/kg/injection, schedule: Q01DX001 (ip), vehicle: saline): 154 % of control; T/C (dose: 28.0 mg/kg/injection, schedule: Q01DX001 (ip), vehicle: carboxymethylcellulose (CMC)): 107 % of control; T/C (dose: 28.0 mg/kg/injection, schedule: Q07DX Z (ip), vehicle: carboxymethylcellulose (CMC)): 94 % of control; T/C (dose: 29.0 mg/kg/injection, schedule: Q04DX003 (ip), vehicle: other): 95 % of control; T/C (dose: 30.0 mg/kg/injection, schedule: Q01DX001 (ip), vehicle: carboxymethylcellulose (CMC)): 153 % of control; T/C (dose: 32.0 mg/kg/injection, schedule: Q01DX001 (ip), vehicle: saline): 121 % of control; T/C (dose: 32.0 mg/kg/injection, schedule: Q01DX001 (oral), vehicle: saline): 93 % of control; T/C (dose: 32.0 mg/kg/injection, schedule: Q01DX Z (oral), vehicle: carboxymethylcellulose (CMC)): 104 % of control; T/C (dose: 56.0 mg/kg/injection, schedule: Q01DX001 (ip), vehicle: carboxymethylcellulose (CMC)): 107 % of control and 117 % of control; T/C (dose: 56.0 mg/kg/injection, schedule: Q07DX Z (ip), vehicle: carboxymethylcellulose (CMC)): 96 % of control
